In article PMC5892710 (Nature chemical biology, 2017):

Biological target: T1, Etr1p (Candida tropicalis, UniProt Q8WZM3)
T1 sequence (Q8WZM3 23-386): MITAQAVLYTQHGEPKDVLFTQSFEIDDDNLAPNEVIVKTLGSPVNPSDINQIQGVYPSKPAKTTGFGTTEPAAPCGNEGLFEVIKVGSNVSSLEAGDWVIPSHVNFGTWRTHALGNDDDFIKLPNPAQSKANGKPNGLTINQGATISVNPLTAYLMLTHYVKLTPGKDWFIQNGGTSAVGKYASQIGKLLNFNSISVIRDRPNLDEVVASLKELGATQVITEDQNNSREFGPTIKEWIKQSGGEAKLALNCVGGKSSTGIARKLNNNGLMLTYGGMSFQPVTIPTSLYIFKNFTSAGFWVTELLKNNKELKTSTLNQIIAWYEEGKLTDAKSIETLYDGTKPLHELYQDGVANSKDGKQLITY
Assay: isothermal titration calorimetry
Format: binding
Settings: 150 mM NaCl, 20 mM Tris-HCl pH 7.9; association constant

binding constant: 3.8 ± 1.0 ·10^5
SMILES: NC(=O)C1=CN([C@@H]2O[C@H](COP(=O)(O)OP(=O)(O)OC[C@H]3O[C@@H](n4cnc5c(N)ncnc54)[C@H](OP(=O)(O)O)[C@@H]3O)[C@@H](O)[C@H]2O)C=CC1 [NADPH]
